How the values were obtained:
Format in all cases: cell-based
SIRT 1 = SIRT 1 expression, real-time PCR and western blot
Procedure: To confirm whether Compound 69c increases the expression of SIRT 1 through the activation of PPARβ/δ, real-time PCR and western blot were performed.

MMP1 = MMP1 expression in UVB photoaging of skin fibroblasts, Western blotting; details: skin fibroblasts pretreated with 10 µM 1 hour before 8 mJ/cm^2 UVB; after 6 hours
Procedure: (§1) Based on this, in order to confirm the effect of Compound 69c on the expression level of intracellular MMPs, 10 µM of Compound 69c was pretreated 1 hour prior to skin fibroblasts and irradiated with UVB of 8 mJ/cm^2. After 6 hours, cells were lysed and the expression levels of MMP1 and MMP13 were confirmed by Western blotting.

MMP13 = MMP13 expression in UVB photoaging of skin fibroblasts, Western blotting; details: skin fibroblasts pretreated with 10 µM 1 hour before 8 mJ/cm^2 UVB; after 6 hours
Procedure: as §1

pro-collagen = assay: Pro-collagen expression in UVB photoaging of skin fibroblasts, Western blotting; details: skin fibroblasts pretreated with 10 µM one hour before 8 mJ/cm^2 UVB; after 6 hours
Procedure: First, the effect of Compound 69c on pro-collagen expression by cell photoaging was analyzed. A collagen reduction model by UVB was constructed using skin fibroblasts to perform the experiments. Skin fibroblasts were pretreated with 10 µM Compound 69c one hour ago and irradiated with 8 mJ/cm^2 of UVB. After 6 hours, the cells were lysed and the expression of pro-collagen was confirmed via Western blotting.

PPARβ/δ [1] = molecular target: T1, PPARβ/δ (Homo sapiens, UniProt Q03181); assay: PPAR response element (PPRE)-luciferase assay in fibroblasts; details: fibroblasts overexpressing PPARβ/δ; compared with GW501516
T1 construct: endogenous in cells
T1 sequence (Q03181 1-441): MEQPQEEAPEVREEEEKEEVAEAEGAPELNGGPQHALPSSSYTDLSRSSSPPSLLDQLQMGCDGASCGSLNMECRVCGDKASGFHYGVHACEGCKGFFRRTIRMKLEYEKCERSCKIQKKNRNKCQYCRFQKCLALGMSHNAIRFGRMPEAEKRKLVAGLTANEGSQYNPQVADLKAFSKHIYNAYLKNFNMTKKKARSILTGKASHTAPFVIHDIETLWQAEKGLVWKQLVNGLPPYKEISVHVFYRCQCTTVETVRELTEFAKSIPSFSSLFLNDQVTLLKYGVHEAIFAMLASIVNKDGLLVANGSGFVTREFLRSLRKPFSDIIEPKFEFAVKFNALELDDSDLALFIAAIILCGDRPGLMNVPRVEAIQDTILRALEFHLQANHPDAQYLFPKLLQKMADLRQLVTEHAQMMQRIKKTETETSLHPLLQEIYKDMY
Procedure: Next, to analyze the effect of PPARβ/δ activity of Compound 69c, a PPAR response element (PPRE)-luciferase assay was performed on fibroblasts, which are the main cells of the skin epithelial layer. A binding site region of PPARβ/δ, i.e. plasmids in which the PPRE region was bound upstream of the luciferase gene were transfected by treating the cells with lipofectamine. Through this process, DNA is surrounded by lipofectamine, making it easier to pass the cell membrane. In addition, it is possible to identify which of the PPAR subtypes is effective by overexpressing PPARβ/δ in addition to the endogenous PPAR subtype. 18 to 24 hours after transduction, at least 5 hours after treatment with the candidate compound, fluorescence was measured by addition of the substrate of the luciferase assay system. Luciferase expression amount can be analyzed by the fluorescence value, and the activity level of PPARβ/δ can be analyzed through the above results.

skin fibroblasts = assay: β-galactosidase staining of UVB-induced cell aging; details: UVB of 10 mJ/cm^2; pretreated at 10 µM for 24 hours
Procedure: β-galactosidase is used to induce cellular aging of fibroblasts, which are the main cells of the epidermal layer of skin, by using UVB, the most important environmental factor in skin aging, as the most common marker for cell aging and β-galactosidase staining was performed to analyze the cell aging protection of Compound 32u. […]

[2] = test system: reactive oxygen species (ROS); assay: Reactive oxygen species with DCF-DA fluorescent dye
PPARβ/δ [3] = molecular target: T1, PPARβ/δ; assay: PPARβ/δ transfer into the nucleus, western blot; details: 1 hour and 30 minutes after treating cells
p53 = assay: Acetylation of p53 increased by UVB
Excerpt: Furthermore, SIRT 1 is known to exert its function through deacetylation of various substrate proteins.

CN1CCN(Cc2ccc3oc(-c4ccccc4NC(=O)c4ccc5ccccc5c4)nc3c2)CC1 [Compound 69c, N-(2-(5-((4-Methylpiperazin-1-yl)methyl)benzo[d]oxazol-2-yl)phenyl)-2-naphthamide]
mRNA expression level of SIRT 1 (SIRT 1; real-time PCR): increased | protein expression level of SIRT 1 (SIRT 1; western blot): increased | expression of MMP1 (MMP1): reduced | expression of MMP13 (MMP13): reduced | expression of pro-collagen (pro-collagen): increased | PPARβ/δ activity (PPRE-luciferase) (PPARβ/δ [1]): higher PPARβ/δ activity than GW501516 | β-galactosidase staining (skin fibroblasts): reduced | reactive oxygen species induced by UVB [2]: inhibited | PPARβ/δ transfer in the nucleus (PPARβ/δ [3]): increase in PPARβ/δ transfer in the nucleus | acetylation of p53 (p53): inhibited acetylation of p53 increased by UVB

Source: patent publication EP3613735A1, “NOVEL SIRT 1 ACTIVATOR AND MEDICINAL USE THEREOF” (Pusan National University Industry - University Cooperation …, priority 2017, dated 2018)
